# Patent publication US7960590B2, “Method for producing ethyleneamines from untreated AAN” (BASF SE, priority 2007, dated 2011)
# Test: Solubility of IDAN in THF and in AAN
smiles,measurement,setting,value
"N#CCNCC#N [IDAN, iminodiacetonitrile]",dissolved concentration,in AAN at 40° C.,~52%
same,dissolved concentration,"in AAN, room temperature, up to",~35%
same,solubility,in THF at room temperature,~10%
